# Results taken from US20080300231A1, “Antibacterial amide macrocycles VI” (priority 2005, published 2008).
# Counter-ions that a name gives are not always drawn. Like-named read-outs stand apart in the source and are kept apart here.
# Assays:
# S. aureus 133 [1] = experiment: Systemic infection with S. aureus 133 (mouse sepsis model); type: in vivo, mouse (female CFW1); conditions: i.p. infection, i.v. therapy 30 minutes after infection, survival recorded for 6 days
# Protocol: Systemic Infection with S. aureus 133
# The suitability of the compounds of the invention for the treatment of bacterial infections can be shown in various animal models. For this purpose, the animals are generally infected with a suitable virulent microbe and then treated with the compound to be tested, which is present in a formulation which is adapted to the particular therapy model.
# For this purpose, S. aureus 133 cells are cultured overnight in BH broth (Oxoid, Germany). The overnight culture was diluted 1:100 in fresh BH broth and expanded for 3 hours. The bacteria which are in the logarithmic phase of growth are centrifuged and washed twice with buffered physiological saline solution. A cell suspension in saline solution with an extinction of 50 units is then adjusted in a photometer (Dr Lange LP 2W). After a dilution step (1:15), this suspension is mixed 1:1 with a 10% mucine suspension. 0.2 ml of this infection solution is administered i.p. per 20 g of mouse. This corresponds to a cell count of about 1-2×10^6 microbes/mouse. The i.v. therapy takes place 30 minutes after the infection. Female CFW1 mice are used for the infection experiment. The survival of the animals is recorded for 6 days. The animal model is adjusted so that untreated animals die within 24 h after the infection.
# S. aureus T17 = experiment: Minimum inhibitory concentration (MIC), biphenomycin-resistant S. aureus T17; type: cell-based; conditions: Staphylococcus aureus; biphenomycin-resistant S. aureus T17; read-out: MIC S. aureus T17
# Protocol: (§1) Determination of the Minimum Inhibitory Concentration (MIC)
# (§2) The minimum inhibitory concentration (MIC) is the minimum concentration of an antibiotic with which the growth of a test microbe is inhibited over 18-24 h. The inhibitor concentration can in these cases be determined by standard microbiological methods (see, for example, The National Committee for Clinical Laboratory Standards. Methods for dilution antimicrobial susceptibility tests for bacteria that grow aerobically; approved standard-fifth edition. NCCLS document M7-A5 [ISBN 1-56238-394-9]. NCCLS, 940 West Valley Road, Suite 1400, Wayne, Pa. 19087-1898 USA, 2000). The MIC of the compounds of the invention is determined in the liquid dilution test on the 96-well microtitre plate scale. The bacterial microbes are cultivated in a minimal medium (18.5 mM Na2HPO4, 5.7 mM KH2PO4, 9.3 mM NH4Cl, 2.8 mM MgSO4, 17.1 mM NaCl, 0.033 μg/ml of thiamine hydrochloride, 1.2 μg/ml of nicotinic acid, 0.003 μg/ml of biotin, 1% glucose, 25 μg/ml of each proteinogenic amino acid with the exception of phenylalanine; [H.-P. Kroll; unpublished]) with addition of 0.4% BH broth (test medium). In the case of Enterococcus faecium L4001, heat-inactivated fetal calf serum (FCS; GibcoBRL, Germany) is added to the test medium in a final concentration of 10%. Overnight cultures of the test microbes are diluted to an OD578 of 0.001 (to 0.01 in the case of enterococci) in fresh test medium, and incubated 1:1 with dilutions of the test substances (1:2 dilution steps) in test medium (200 μl final volume). The cultures are incubated at 37° C. for 18-24 hours; enterococci in the presence of 5% CO2
# (§3) The lowest substance concentration in each case at which no visible bacterial growth occurs any more is defined as the MIC.
# (§4) Alternative Method for Determining the Minimum Inhibitory Concentration (MIC)
# (§5) The minimum inhibitory concentration (MIC) is the minimum concentration of an antibiotic with which the growth of a test microbe is inhibited over 18-24 h. The inhibitor concentration can in these cases be determined by standard microbiological methods with modified medium in an agar dilution test (see, for example, The National Committee for Clinical Laboratory Standards. Methods for dilution antimicrobial susceptibility tests for bacteria that grow aerobically; approved standard-fifth edition. NCCLS document M7-A5 [ISBN 1-56238-394-9]. NCCLS, 940 West Valley Road, Suite 1400, Wayne, Pa. 19087-1898 USA, 2000). The bacterial microbes are cultivated on 1.5% agar plates which contain 20% defibrinated horse blood. The test microbes, which are incubated overnight on Columbia blood agar plates (Becton-Dickinson), are diluted in PBS, adjusted to a microbe count of about 5×10^5 microbes/ml and placed dropwise (1-3 μl) on test plates. The test substances comprise different dilutions of the test substances (1:2 dilution steps). The cultures are incubated at 37° C. in the presence of 5% CO2 for 18-24 hours.
# (§6) The lowest substance concentration in each case at which no visible bacterial growth occurred any more is defined as the MIC and is reported in μg/ml.
# The S. aureus strain T17 is isolated in vivo. CFW1 mice are infected intraperitoneally with 4×10^7 S. aureus 133 cells per mouse. 0.5 h after the infection, the animals are treated intravenously with 50 mg/kg biphenomycin B. The kidneys are removed from the surviving animals on day 3 after the infection. After homogenization of the organs, the homogenates are plated out as described for RN4220Bi^R on antibiotic-free and antibiotic-containing agar plates and incubated at 37° C. overnight. […] About 20 of these colonies are tested for the biphenomycin B MIC, and a colony with a MIC of >50 μM is selected for further cultivation, and the strain is referred to as T17.
# [2] = system: Enterococcus faecium L4001; experiment: Minimum inhibitory concentration (MIC), E. faecium L4001; type: cell-based; conditions: Enterococcus faecium
# Protocol: as §1, §2, §3, §4, §5, §6
# S. aureus 133 [3] = experiment: Minimum inhibitory concentration (MIC), S. aureus 133; type: cell-based
# Protocol: as §1, §2, §3, §4, §5, §6
# [4] = biological target: S. aureus 133 Translation; experiment: S. aureus in vitro transcription-translation assay (firefly luciferase, S30 extract); type: biochemical; conditions: 50% inhibition of the translation of firefly luciferase
# Text: In Vitro Transcription-Translation with S. aureus Extracts
# Construction of an S. aureus luciferase Reporter Plasmid
# In order to construct a reporter plasmid which can be used in an in vitro transcription-translation assay from S. aureus the plasmid pBESTluc (Promega Corporation, USA) is used. The E. coli tac promoter present in this plasmid in front of the firefly luciferase is replaced with the capA1 promoter with appropriate Shine-Dalgarno sequence from S. aureus. The primers CAPFor 5′-CGGCCAAGCTTACTC-[…] […]-3′ and CAPRev 5′-[…]-3′ are used for this. The primer CAPFor contains the capA1 promoter, the ribosome binding site and the 5′ region of the luciferase gene. After PCR using pBESTluc as template it is possible to isolate a PCR product which contains the firefly luciferase gene with the fused capA1 promoter. This is, after restriction with ClaI and HindIII, ligated into the vector pBESTluc which has likewise been digested with ClaI and HindIII. The resulting plasmid p1a can be replicated in E. coli and can be used as template in the S. aureus in vitro transcription-translation test.
# Preparation of S30 Extracts from S. aureus
# Six litres of BHI medium are inoculated with a 250 ml overnight culture of an S. aureus strain and allowed to grow at 37° C. until the OD600 nm is 2-4. The cells are harvested by centrifugation and washed in 500 ml of cold buffer A (10 mM Tris acetate, pH 8.0, 14 mM magnesium acetate, 1 mM DTT, 1 M KCl). After renewed centrifugation, the cells are washed in 250 ml of cold buffer A with 50 mM KCl, and the resulting pellets are frozen at −20° C. for 60 min. The pellets are thawed on ice in 30 to 60 min and taken up to a total volume of 99 ml in buffer B (10 mM Tris acetate, pH 8.0, 20 mM magnesium acetate, 1 mM DTT, 50 mM KCl). 1.5 ml portions of lysostaphin (0.8 mg/ml) in buffer B are introduced into 3 precooled centrifuge cups and mixed with 33 ml of the cell suspension each. The samples are incubated at 37° C., shaking occasionally, for 45 to 60 min, before 150 μl of a 0.5 M DTT solution are added. The lysed cells are centrifuged at 30 000×g and 4° C. for 30 min. The cell pellet is taken up in buffer B and then centrifuged again under the same conditions, and the collected supernatants are combined. The supernatants are centrifuged again under the same conditions, and 0.25 volumes of buffer C (670 mM Tris acetate, pH 8.0, 20 mM magnesium acetate, 7 mM Na3 phosphoenolpyruvate, 7 mM DTT, 5.5 mM ATP, 70 μM amino acids (complete from Promega), 75 μg of pyruvate kinase (Sigma, Germany))/ml are added to the upper ⅔ of the supernatant. The samples are incubated at 37° C. for 30 min. The supernatants are dialysed against 2 l of dialysis buffer (10 mM Tris acetate, pH 8.0, 14 mM magnesium acetate, 1 mM DTT, 60 mM potassium acetate) in a dialysis tube with a 3500 Da cut-off with one buffer change at 4° C. overnight. The dialysate is concentrated to a protein concentration of about 10 mg/ml by covering the dialysis tube with cold PEG 8000 powder (Sigma, Germany) at 4° C. The S30 extracts can be stored in aliquots at −70° C.
# Determination of the IC50 in the S. aureus In Vitro Transcription-Translation Assay
# The inhibition of protein biosynthesis of the compounds can be shown in an in vitro transcription-translation assay. The assay is based on the cell-free transcription and translation of firefly luciferase using the reporter plasmid p1a as template and cell-free S30 extracts obtained from S. aureus. The activity of the resulting luciferase can be detected by luminescence measurement.
# The amount of S30 extract or plasmid p1a to be employed must be tested anew for each preparation in order to ensure an optimal concentration in the assay. 3 μl of the substance to be tested, dissolved in 5% DMSO, are provided in an MTP. Then […] of a suitably concentrated plasmid solution p1a are added. […]
# [5] = E. faecium L4001, test medium with 10% FCS, read-out: MIC E. faecium L4001
# [6] = Staphylococcus aureus, 133; read-out: MIC S. aureus 133
# [7] = L4001, read-out: MIC E. faecium L4001
# [8] = Staphylococcus aureus, 133, read-out: MIC S. aureus 133
SMILES,ED100 (therapeutic effect) (S. aureus 133 [1]) [mg/kg],MIC (S. aureus T17) [µg/mL],"MIC [2, 5] [µg/mL]",MIC (S. aureus 133 [3]; [6]) [µg/mL],IC50 [4] [nM],"MIC [2, 7] [µg/mL]",MIC (S. aureus 133 [3]; [8]) [µg/mL]
"NCCC[C@@H]1NC(=O)[C@@H](N)Cc2cc(ccc2O)-c2ccc(O)c(c2)C[C@@H](C(=O)N2CCC[C@H]2C(=O)N[C@@H](CCCN)C(=O)NCCN)NC1=O.O=C(O)C(F)(F)F.O=C(O)C(F)(F)F.O=C(O)C(F)(F)F.O=C(O)C(F)(F)F [Example 2, 1-{[(8S,11S,14S)-14-Amino-11-(3-aminopropyl)-5,17-dihydroxy-10,13-dioxo-9,12-diazatricyclo[14.3.1.1^2,6]henicosa-1(20),2(21),3,5,16,18-hexaen-8-yl]carbonyl}-L-prolyl-N-(2-aminoethyl)-L-ornithinamide tetra(hydrotrifluoroacetate)]",1.25,–,–,–,–,–,–
NCCC[C@@H]1NC(=O)[C@@H](N)Cc2cc(ccc2O)-c2ccc(O)c(c2)C[C@@H](C(=O)N(CCN)CC2CCCCN2)NC1=O (stereo partly drawn) [Example 9],–,2,32,4,330,–,–
NCCC[C@@H]1NC(=O)[C@@H](N)Cc2cc(ccc2O)-c2ccc(O)c(c2)C[C@@H](C(=O)N(CCN)CC(O)CN)NC1=O (stereo partly drawn) [Example 8],–,4,16,1,250,–,–
"NCCC[C@@H]1NC(=O)[C@@H](N)Cc2cc(ccc2O)-c2ccc(O)c(c2)C[C@@H](C(=O)N2CCC[C@H]2C(=O)N[C@@H](CCCN)C(=O)NCCN)NC1=O [Example 1, 1-{[(8S,11S,14S)-14-Amino-11-(3-aminopropyl)-5,17-dihydroxy-10,13-dioxo-9,12-diazatricyclo[14.3.1.1^2,6]henicosa-1(20),2(21),3,5,16,18-hexaen-8-yl]carbonyl}-L-prolyl-N-(2-aminoethyl)-L-ornithinamide tetrahydrochloride]",–,4,–,–,700,2,1
NCCC[C@@H]1NC(=O)[C@@H](N)Cc2cc(ccc2O)-c2ccc(O)c(c2)C[C@@H](C(=O)N(CCN)CCO)NC1=O [Example 6],–,4,4,2,700,–,–
"CNCCN(CCN)C(=O)[C@@H]1Cc2cc(ccc2O)-c2ccc(O)c(c2)C[C@H](N)C(=O)N[C@@H](CCCN)C(=O)N1 [Example 3, (8S,11S,14S)-14-Amino-N-(2-aminoethyl)-11-(3-aminopropyl)-5,17-dihydroxy-N-[2-(methylamino)ethyl]-10,13-dioxo-9,12-diazatricyclo[14.3.1.1^2,6]henicosa-1(20),2(21),3,5,16,18-hexaene-8-carboxamide tetrahydrochloride]",–,4,–,–,800,8,2
